Reference: article PMC9376960, “Ruthenium(II)–Tris-pyrazolylmethane Complexes Inhibit Cancer Cell Growth by Disrupting Mitochondrial Calcium Homeostasis” (Journal of Medicinal Chemistry, 2022)

What was measured:
[1] = parameters: method as in doi:10.1021/acs.organomet.9b00813; settings: UV-Vis measurements; cited from earlier work
[2] = Stability and speciation in deuterated cell culture medium (DMEM-d/DMSO-d6, NMR); type: physicochemical; settings: for Aquo species % in DMEM-d/DMSO-d6 after 24h: 37 °C; for residual complex % in DMEM-d/DMSO-d6: after 24 h at 37 °C, sum of chloro and aquo complexes
Experimental: Powdered DMEM cell culture medium (1000 mg/L glucose and L-glutamine, without sodium bicarbonate and phenol red; D2902; Sigma-Aldrich) was dissolved in D2O (10 mg/mL), according to the manufacturer’s instructions. The solution of deuterated cell culture medium (“DMEM-d”) was treated with Me2SO2 (6.6 × 10^–3 M) and NaH2PO4/Na2HPO4 (0.10 M, pD = 7.5)[120]−[122] and then stored at 4 °C under N2. The selected ruthenium compound (2–3 mg) was dissolved in DMSO-d6 (0.14 mL; 0.18 mL for 4) and then diluted with DMEM-d up to 0.75 mL total volume (cRu ca. 4 × 10^–3 M). The mixture was stirred for 30 min, then filtered over celite, and transferred into an NMR tube. The resulting yellow solution was analyzed by ^1H and ^31P NMR (delay time = 3 s; number of scans = 20) and then heated at 37 °C for 24 h. After cooling to room temperature, NMR analyses were repeated. Compound 1 was instead dissolved in a DMSO-d6/DMEM-d 4:1 v/v solution (0.7 mL; [Ru] = approx. 3 × 10^–3 M) containing Me2SO2 as the internal standard.[115] The percentage of the starting complex + related aquo complex was calculated by the relative integral with respect to Me2SO2 (δ/ppm = 3.16 in DMSO-d6/DMEM-d 1:4 and 1:3 v/v; δ/ppm = 2.95 in DMSO-d6/DMEM-d 4:1 v/v).

HeLa = experiment: MTT antiproliferative assay; type: cell-based, human; settings: 72 h, mean ± SD
Experimental: (§1) All of the cell lines were cultivated in DMEM medium (high glucose 4.5 g L^–1, PAA, Pasching, Austria) supplemented with gentamycin (50 μg mL^–1, Serva, Heidelberg, Germany) and 10% heat-inactivated fetal bovine serum (PAA). The medium for MRC5pd30 cells was further supplemented by 1% nonessential amino acids (Sigma-Aldrich, Prague, Czech Republic). All cells were cultured as adherent monolayers in a humidified incubator at 37 °C in a 5% CO2 atmosphere and subcultured twice a week with an appropriate plating density.
(§2) In vitro antiproliferative activity of Ru complexes was determined by the MTT or, alternatively, SRB assay as already described,[84] after 72 h of incubation of cells with various concentrations of the Ru complex. The reported IC50 values are an average of three independent experiments, each consisting of three replicates per concentration.

518A2 = experiment: MTT antiproliferative assay; type: cell-based, human; settings: 72 h, mean ± SD
Experimental: as §1, §2

HCT116 [3] = experiment: MTT antiproliferative assay; type: cell-based, human; settings: 72 h, mean ± SD
Experimental: as §1, §2

MCF-7 = experiment: MTT antiproliferative assay; type: cell-based, human; settings: 72 h, mean ± SD
Experimental: as §1, §2

[4] = Stability and chloride/water exchange in D2O (NMR); type: physicochemical; settings: for Aquo species % in D2O after 48h: 48 h at 37 °C; for residual complex % in D2O: after 48 h at 37 °C, sum of chloro and aquo complexes; for Aquo species % in D2O at t0: t0 = after 2 h stirring in D2O
Experimental: The same samples prepared at point (a) were used in this experiment, apart from complex 1 that was dissolved in DMSO-d6/D2O 4:1 v/v solution (0.7 mL; [Ru] = approx. […]) containing Me2SO2 as the standard.[115] After ^1H and ^31P{^1H} NMR analyses described above at point (a) (time = t0), samples were heated at 37 °C for 48 h. After cooling to room temperature, ^1H and ^31P NMR spectra were recorded. The percentage of starting complex + related aquo complex was calculated by the relative integral (C^βH signal in the ^1H spectrum) with respect to Me2SO2 (c = 3.3 × 10^–3 mol·L^–1; δ/ppm = 3.14 in D2O; δ/ppm = 2.95 in DMSO-d6/D2O 4:1 v/v), see Table 2 and S1.

[5] = Octanol/water partition coefficient, shake-flask, UV-vis; type: physicochemical
Experimental: Partition coefficients (Pow); IUPAC: […] A stock solution of the selected ruthenium compound (ca. 2 mg) was prepared by first adding MeOH (50 μL, to help solubilization), followed by octanol-saturated water (2.5 mL). The solution was diluted with octanol-saturated water (ca. 1:3 v/v ratio, cRu ≈ 10^-4 M, so that 1.5 ≤ A ≤ 2.0 at λmax), and its UV-vis spectrum was recorded (Aaq^0). An aliquot of the solution (Vaq = 1.2 mL) was transferred into a test tube, and water-saturated octanol (Vorg = Vaq = 1.2 mL) was added. […] The UV-vis spectrum of the aqueous phase was recorded (Aaq^f), and the partition coefficient was calculated as Pow = ([…], where […] are the absorbances in the aqueous phase before and after partition with the organic phase, respectively.[118] For 1, an inverse procedure was followed, starting from a solution of the compound in water-saturated octanol. The partition coefficient was calculated as Pow = Aorg^f/(Aorg^0 - Aorg^f), where Aorg^0 and Aorg^f are the absorbances in the organic phase before and after partition with the aqueous phase, respectively. The wavelength of the maximum absorption of each compound (280-380 nm range) was used for UV-vis quantitation. The procedure was repeated three times for each sample (from the same stock solution); the results are given as mean ± standard deviation (Table 2).

HCT116 [6] = experiment: SRB antiproliferative assay; type: cell-based, human; settings: SRB test, 72 h; mean ± SD
Experimental: as §2

[7] = tested on: cancer cell lines (MCF-7, HeLa, 518A2, HCT116, RD) vs noncancerous MRC-5pd30; experiment: MTT panel: average IC50 of cancer cell lines and selectivity index; type: cell-based, human; settings: for SI (selectivity index): IC50 for noncancerous MRC-5pd30 vs the average IC50 value of cancer cell lines; for IC50: average of IC50 values related to cancer cell lines
Experimental: as §2

MRC5pd30 = experiment: MTT assay on noncancerous cells; type: cell-based, human; settings: 72 h, mean ± SD
Experimental: as §1, §2

RD = experiment: MTT antiproliferative assay; type: cell-based, human; settings: 72 h, mean ± SD
Experimental: as §1, with “density. In vitro antiproliferative activity of Ru complexes was determined by the MTT or, alternatively, SRB assay as already described,[84] after 72 h of incubation of cells with various concentrations of the Ru complex. The reported IC50 values are an average of three independent experiments, each consisting of three replicates per concentration.” for “density.”

[8] = Solubility in water (D2O) by 1H NMR; type: physicochemical; settings: D2O, 21°C; sum of chloro and aquo complex after 2 h; 1H NMR, Me2SO2 standard
Experimental: A suspension of the selected ruthenium complex (3–5 mg) in a D2O solution (0.7 mL) containing Me2SO2 as the internal standard[115] (3.36 × 10^–3 M) was vigorously stirred at 21 °C for 2 h. The resulting saturated solution was filtered over celite, transferred into an NMR tube, and analyzed by ^1H NMR and ^31P NMR spectroscopy (delay time = 3 s; number of scans = 20). The concentration (solubility) was calculated by the relative integral (starting complex + aquo complex, C^βH signal in the ^1H spectrum) with respect to Me2SO2 (δ/ppm = 3.14). NMR data are given in the Supporting Information (Figures S36–S47).

HCT116 cells = experiment: Cellular uptake of Ru (ICP-MS); type: cell-based, human; settings: HCT116, 15 μM, 24 h; mean ± SEM
Experimental: In these experiments, 1 × 10^6 HCT116 cells were seeded on 100 mm Petri dishes. After overnight preincubation in a drug-free medium, the cells were treated with the Ru complexes (15 μM) for 24 h. Afterward, the cells were extensively washed with PBS (37 °C), detached using 0.25% trypsin, washed twice with ice-cold PBS, and counted by an automatic cell counter. The cell pellets were digested using a microwave acid (HCl) digestion system (CEM Mars). The quantity of Ru taken up by the cells was determined by inductively coupled plasma mass spectrometry (ICP-MS). All experiments were carried out in triplicate.

Row | Substance | Aquo species % in DMEM-d/DMSO-d6 at t0 ([2]; DMSO-d6-DMEM-d 1:4 v/v) | Aquo species % in DMEM-d/DMSO-d6 after 24h ([2]; DMSO-d6-DMEM-d 1:4 v/v) | residual complex % in DMEM-d/DMSO-d6 ([2]; DMSO-d6/DMEM-d 1:4 v/v) | IC50 (HeLa) | IC50 (518A2) | IC50 (HCT116 [3]) | IC50 (MCF-7) | Aquo species % in D2O after 48h [4] | residual complex % in D2O [4] | Aquo species % in D2O at t0 [4] | log Pow [5] | IC50 (HCT116 [6]) | SI (selectivity index) [7] | IC50 [7] | IC50 (MRC5pd30) | IC50 (RD) | solubility [8] | Accumulation of ruthenium, ng Ru/10^6 cells (HCT116 cells) | further results
1 | [Fe2Cp2(CO)(μ-CO){μ-η^1:η^3-C(3-C6H4OH)CHCNMe2}]CF3SO3 [[FeFe]^+[CF3SO3]^–] | – | – | – | – | – | – | – | – | – | – | – | – | – | – | – | – | – | – | LogPow [1]: −0.34
2 | [RuCl(κ^3-tpm)(PPh3)(NCMe)]Cl [compound 2] | 0% | 59% | 51% | 53 ± 4 µM | 26 ± 4 µM | 25 ± 2 µM | 32 ± 4 µM | 92% | 89% | 80% | –0.33 ± 0.07 | 16 ± 1 µM | 2.4 | 32.4 ± 3.8 µM | 76 ± 1 µM | 26 ± 5 µM | 4.5 10^–3 mol·L^–1 | 29.6 ± 2.9 ng Ru/10^6 cells | –
3 | [RuCl(κ^3-tpm)(PPh3){N(CH)3C(OH)CH}]Cl [compound 6] | 9% | 70% | 100% | 54 ± 14 µM | 38 ± 8 µM | 31 ± 2 µM | 46 ± 7 µM | 99% | 100% | 15% | – | 20 ± 2 µM | 2.0 | 41.4 ± 7.4 µM | 82 ± 4 µM | 38 ± 6 µM | 1.9 10^–3 mol·L^–1 | 27.2 ± 1.1 ng Ru/10^6 cells | –
4 | [RuCl(κ^3-tpm)(PPh3){NCHNHC(CH)4C}]Cl [compound 4] | – | – | – | 36 ± 1 µM | 35 ± 4 µM | 25 ± 2 µM | 37 ± 7 µM | 70% | 100% | 67% | 0.58 ± 0.06 | 21 ± 3 µM | 1.8 | 31.6 ± 3.4 µM | 56.6 ± 0.7 µM | 25 ± 3 µM | 2.4 10^–3 mol·L^–1 | 54.9 ± 1.3 ng Ru/10^6 cells | Aquo species % in DMEM-d/DMSO-d6 at t0 ([2]; DMSO-d6-DMEM-d 1:3 v/v): 0%; Aquo species % in DMEM-d/DMSO-d6 after 24h ([2]; DMSO-d6-DMEM-d 1:3 v/v): 59%; residual complex % in DMEM-d/DMSO-d6 ([2]; DMSO-d6/DMEM-d 1:3 v/v): 93%
5 | [RuCl(κ^3-tpm)(PPh3){NNH(CH)3}]Cl [compound 5] | 0% | 50% | 98% | 54 ± 6 µM | 31 ± 3 µM | 30 ± 2 µM | 32 ± 5 µM | 88% | 100% | 25% | –0.05 ± 0.05 | 20 ± 3 µM | 1.9 | 34 ± 3.6 µM | 63 ± 4 µM | 23 ± 2 µM | 3.4 10^–3 mol·L^–1 | 58.4 ± 3.0 ng Ru/10^6 cells | –
